Experimental findings from patent publication EP0684818B1, “METHOD OF REVERSING RESISTANCE OF HIV-1 STRAINS TO ZIDOVUDINE” (priority 1993, dated 1994) are described below.

≈ marks a conversion by molar mass, not a printed value. Where “and” joins values, the source holds several entries; their conditions need not be identical. Identical values can stand only once. Like-named read-outs stand apart in the source and are kept apart here. Where only a bound is given, the exact number is not on record here.

Experiment [1] deals with HIV isolates from the patient. Nature of the experiment: Sensitivity of HIV isolates from the patient to antiviral compounds (p24 antigen production in co-culture with PHA-stimulated donor lymphocytes). The following applies: for IC50: mutations I135T, Q207E, T215F, K219Q, 50% inhibition of p24 antigen production, repeated experiment nos. The format is cell-based, HIV-1. The method, then: A standard HIV-1 isolation from fresh lymphocytes and fresh plasma was performed at several time points (two months (60 days) before the start of therapy, 1 month (30 days) and 4 months (120 days) after start of the therapy).
Plasma or lymphocytes from the patient were co-cultured with 3·10^6 PHA stimulated (phytohemagglutinin, Sigma, St. Louis, Mo., USA) HIV-1 negative donor lymphocytes. Cultures were performed in a 5% CO2 atmosphere at 37°C. Medium was replaced every 3 to 4 days. When cell death occured, fresh PHA-stimulated donor lymphocytes were added. Every 3 to 4 days, the cultures were monitored for cytopathic effect and for the presence of HIV-1 p24 antigen in the supernatant. Cultures were followed during 5 weeks. A sample was considered positive for virus if the concentration of p24 antigen in the supernatant of the co-culture (determined by a p24 antigen capture test) exceeded 1000 pg per milliliter on a single determination or > 200 pg per milliliter on two consecutive determinations. Supernatants of positive isolates were aliquoted and frozen at -70°C.
(§1) An aliquot of a positive isolate was co-cultured with several cultures of PHA-stimulated donor lymphocytes. Serial dilutions of the antiviral compound (α-[(2-nitrophenyl)-amino]-2,6-dichlorobenzeneacetamide (Co. I) or zidovudine) were added to the cultures. Cultures were performed in a 5% CO2 atmosphere at 37°C. Medium and drugs were replaced every 3 to 4 days. When cell death occured, fresh PHA-stimulated donor lymphocytes were added. The cultures were monitored for cytopathic effect and for the presence of p24 antigen in the supernatant. When p24 levels produced in the controls (without antiviral compound) exceeded 1000 pg per milliliter, a p24 antigen test was performed on all cultures treated with antivirals The concentration of antiviral compound that was needed to inhibit 50% of p24 antigen production of the controls, was calculated (IC50). The sensitivity of the isolates obtained from the patient was determined on several occasions at different times (experiment nos.). The nucleotide sequence of the reverse transcriptase was determined in order to identify mutations selected by exposure of the retrovirus to Co. I. The results obtained thus far are shown in table 1.

Another experiment deals with Wild-type Strain IIIB. Nature of the experiment: Sensitivity of wild-type HIV-1 strain to antiviral compounds (p24 antigen production in PHA-stimulated donor lymphocytes). The following applies: 50% inhibition of p24 antigen production, repeated experiment nos. The format is cell-based. The method, then: as §1
Setting [2] is: isolate after four months of Co. I therapy, novel mutation Y181C.
Where [3] appears, read: isolate obtained two months before the therapy switch.

`Cc1cn([C@H]2C[C@H](N=[N+]=[N-])[C@@H](CO)O2)c(=O)[nH]c1=O` [zidovudine, 3'-azido-3'-deoxythymidine]: the “sensitivity of the HIV-1 isolate (in words)” value is listed as “acquired again significant sensitivity” in experiment [1] (setting [2]) and “resistant” in experiment [1] (setting [3]). The “IC50” value was 0.001 µg/mL and 0.0008 µg/mL in the experiment on Wild-type Strain IIIB; 0.0011 µg/mL (≈ 4.12 nM) with Wild-type Strain IIIB (Human immunodeficiency virus 1, IIIB, Lymphocyte, read-out: IC50).
On to `NC(=O)C(Nc1ccccc1[N+](=O)[O-])c1c(Cl)cccc1Cl` (stereo not drawn) [Co.I, α-[(2-nitrophenyl)amino]-2,6-dichlorobenzeneacetamide], for which the “sensitivity of the HIV-1 isolate (in words)” value is given as “resistant” in experiment [1] (setting [2]) and “sensitive” in experiment [1] (setting [3]). Moreover, the “IC50” value in experiment [1] (patient isolate at time 120 days after start of Co. I therapy (400 mg t.i.d., po), Y181C) is greater than 10 µg/mL; in experiment [1] (patient isolate at time -60 days (two months before start of Co. I therapy)), 0.041 µg/mL and 0.07 µg/mL and 0.073 µg/mL and 0.054 µg/mL.

As usually defined, the IC50 is the point on the concentration scale where inhibition reaches its midpoint.
